# Reference: article PMC10791743, “Selective CK1α degraders exert antiproliferative activity against a broad range of human cancer cell lines” (Nature Communications, 2024)
# Columns and labels:
# 102 cell lines [1] = settings: cited from earlier work
# 102 cell lines [2] = test: Oncolines viability of 120 reference anti-cancer agents; assay type: cell-based, human
# Procedure: Pearson correlations were calculated between SJ3149 ^10log IC50 values and those of the 120 reference agents, to determine the similarity of compound IC50 fingerprints.
# 102 cell lines [3] = test: as above; assay type: cell-based, human; remark: listed apart in the source
compound,measurement,setting,value
COc1ccc(C2=N[C@@H](c3ccc(Cl)cc3)[C@@H](c3ccc(Cl)cc3)N2C(=O)N2CCNC(=O)C2)c(OC(C)C)c1 [Nutlin-3a],Potency in responsive cell lines,102 cell lines [1],micromolar potency
same,IC50,"102 cell lines [2]; G-361, Melanoma",2.53 µM
same,IC50,"102 cell lines [2]; JAR, Gestational choriocarcinoma",7.25 µM
same,IC50,"102 cell lines [2]; KG-1, Adult acute myeloid leukemia",> 31.6 µM
same,IC50,"102 cell lines [2]; MOLT-4, Adult T acute lymphoblastic leukemia",2.87 µM
same,IC50,"102 cell lines [2]; NCI-H460, Large cell lung carcinoma",4.2 µM
same,IC50,"102 cell lines [2]; RL, Diffuse large B-cell lymphoma, TP53 Mutant",> 31.6 µM
same,IC50,"102 cell lines [2]; SNU-C2B, Cecum adenocarcinoma, TP53 Mutant",> 31.6 µM
same,IC50,"102 cell lines [2]; SR, Anaplastic large cell lymphoma, TP53 Mutant",2.04 µM
same,IC50,"102 cell lines [2]; SW948, Colon adenocarcinoma, TP53 Mutant",> 31.6 µM
same,IC50,"102 cell lines [2]; cell line ACHN, Papillary renal cell carcinoma, TP53 Wild-type",3.3 µM
same,IC50,"102 cell lines [2]; cell line AsPC-1, Pancreatic ductal adenocarcinoma, TP53 Mutant",> 31.6 µM
same,IC50,"102 cell lines [2]; cell line Daoy, Medulloblastoma, TP53 Mutant",> 31.6 µM
same,IC50,"102 cell lines [2]; cell line TT (Hereditary thyroid gland medullary carcinoma), TP53 Wild-type",7.4 µM
same,IC50,"102 cell lines [2]; cell line U-2 OS (Osteosarcoma), TP53 Wild-type",13.3 µM
same,IC50,"102 cell lines [3]; FaDu, Hypopharyngeal squamous cell carcinoma",> 31.6 µM
same,IC50,"102 cell lines [3]; HCT 116, Colon carcinoma",4.55 µM
same,IC50,"102 cell lines [3]; HCT-15, Colon adenocarcinoma",> 31.6 µM
same,IC50,"102 cell lines [3]; HL-60, Adult acute myeloid leukemia",> 31.6 µM
same,IC50,"102 cell lines [3]; HT-1080, Fibrosarcoma",2.06 µM
same,IC50,"102 cell lines [3]; HT, Diffuse large B-cell lymphoma",> 31.6 µM
same,IC50,"102 cell lines [3]; Hs 578T, Invasive ductal carcinoma",> 31.6 µM
same,IC50,"102 cell lines [3]; Hs 746T, Gastric adenocarcinoma",> 31.6 µM
same,IC50,"102 cell lines [3]; Hs 766T, Pancreatic adenocarcinoma",> 31.6 µM
same,IC50,"102 cell lines [3]; HuTu 80, Duodenal adenocarcinoma",3.91 µM
same,IC50,"102 cell lines [3]; J82, Bladder carcinoma",> 31.6 µM
same,IC50,"102 cell lines [3]; Jurkat E6.1, Childhood T acute lymphoblastic leukemia",> 31.6 µM
same,IC50,"102 cell lines [3]; K-562, Chronic myelogenous leukemia",> 31.6 µM
same,IC50,"102 cell lines [3]; KATO III, Signet ring cell gastric adenocarcinoma",29.3 µM
same,IC50,"102 cell lines [3]; KLE, Endometrial adenocarcinoma",> 31.6 µM
same,IC50,"102 cell lines [3]; KU812, Chronic myelogenous leukemia",> 31.6 µM
same,IC50,"102 cell lines [3]; LNCaP FGC, Prostate carcinoma",10.9 µM
same,IC50,"102 cell lines [3]; LS 174T, Colon adenocarcinoma",3.7 µM
same,IC50,"102 cell lines [3]; LS411N, Cecum adenocarcinoma",> 31.6 µM
same,IC50,"102 cell lines [3]; LoVo, Colon adenocarcinoma",10.2 µM
same,IC50,"102 cell lines [3]; MCF7, Invasive ductal carcinoma",11.4 µM
same,IC50,"102 cell lines [3]; MG-63, Osteosarcoma",> 31.6 µM
same,IC50,"102 cell lines [3]; MIA PaCa-2, Pancreatic ductal adenocarcinoma",> 31.6 µM
same,IC50,"102 cell lines [3]; MeWo, Melanoma",> 31.6 µM
same,IC50,"102 cell lines [3]; NCCIT, Testicular embryonal carcinoma",> 31.6 µM
same,IC50,"102 cell lines [3]; NCI-H82, Small cell lung carcinoma",> 31.6 µM
same,IC50,"102 cell lines [3]; NCI-H661, Large cell lung carcinoma",> 31.6 µM
same,IC50,"102 cell lines [3]; OVCAR-3, High grade ovarian serous adenocarcinoma, TP53 Mutant",> 31.6 µM
same,IC50,"102 cell lines [3]; PA-1, Ovarian mixed germ cell tumor, TP53 Wild-type",2.31 µM
same,IC50,"102 cell lines [3]; PC-3, Prostate carcinoma, TP53 Mutant",> 31.6 µM
same,IC50,"102 cell lines [3]; PFSK-1, Primitive neuroectodermal tumor, TP53 Mutant",> 31.6 µM
same,IC50,"102 cell lines [3]; RD, Embryonal rhabdomyosarcoma, TP53 Mutant",> 31.6 µM
same,IC50,"102 cell lines [3]; RKO, Colon carcinoma, TP53 Wild-type",15.7 µM
same,IC50,"102 cell lines [3]; RL95-2, Endometrial adenosquamous carcinoma, TP53 Mutant",24.6 µM
same,IC50,"102 cell lines [3]; RPMI-7951, Melanoma, TP53 Mutant",> 31.6 µM
same,IC50,"102 cell lines [3]; RS4-11, Adult B acute lymphoblastic leukemia, TP53 Wild-type",4.71 µM
same,IC50,"102 cell lines [3]; RT4, Bladder carcinoma, TP53 Wild-type",7.03 µM
same,IC50,"102 cell lines [3]; SHP-77, Small cell lung carcinoma, TP53 Mutant",27.3 µM
same,IC50,"102 cell lines [3]; SJCRH30, Alveolar rhabdomyosarcoma, TP53 Mutant",> 31.6 µM
same,IC50,"102 cell lines [3]; SK-N-AS, Neuroblastoma, TP53 Wild-type",> 31.6 µM
same,IC50,"102 cell lines [3]; SK-N-FI, Neuroblastoma, TP53 Mutant",> 31.6 µM
same,IC50,"102 cell lines [3]; SNU-5, Gastric carcinoma, TP53 Mutant",> 31.6 µM
same,IC50,"102 cell lines [3]; SU-DHL-1, Anaplastic large cell lymphoma, TP53 Mutant",30.7 µM
same,IC50,"102 cell lines [3]; SU-DHL-6, Diffuse large B-cell lymphoma, TP53 Mutant",23.4 µM
same,IC50,"102 cell lines [3]; SUP-T1, Childhood T lymphoblastic lymphoma, TP53 Mutant",> 31.6 µM
same,IC50,"102 cell lines [3]; SW48, Colon adenocarcinoma, TP53 Wild-type",7.63 µM
same,IC50,"102 cell lines [3]; SW480, Colon adenocarcinoma, TP53 Mutant",> 31.6 µM
same,IC50,"102 cell lines [3]; SW620, Colon adenocarcinoma, TP53 Mutant",13.6 µM
same,IC50,"102 cell lines [3]; SW626, Colon adenocarcinoma, TP53 Mutant",> 31.6 µM
same,IC50,"102 cell lines [3]; SW837, Rectal adenocarcinoma, TP53 Mutant",> 31.6 µM
same,IC50,"102 cell lines [3]; SW872, Liposarcoma, TP53 Mutant",> 31.6 µM
same,IC50,"102 cell lines [3]; SW900, Squamous cell lung carcinoma, TP53 Mutant",> 31.6 µM
same,IC50,"102 cell lines [3]; SW982, Biphasic synovial sarcoma, TP53 Wild-type",3.11 µM
same,IC50,"102 cell lines [3]; T24, Bladder carcinoma, TP53 Mutant",> 31.6 µM
same,IC50,"102 cell lines [3]; T98G, Glioblastoma, TP53 Mutant",> 31.6 µM
same,IC50,"102 cell lines [3]; cell line 769-P, Renal cell carcinoma, TP53 Wild-type",5.52 µM
same,IC50,"102 cell lines [3]; cell line 786-O, Renal cell carcinoma, TP53 Mutant",13.4 µM
same,IC50,"102 cell lines [3]; cell line 5637, Bladder carcinoma, TP53 Mutant",> 31.6 µM
same,IC50,"102 cell lines [3]; cell line A375, Amelanotic melanoma, TP53 Wild-type",6.9 µM
same,IC50,"102 cell lines [3]; cell line A388, Squamous cell carcinoma, TP53 Mutant",> 31.6 µM
same,IC50,"102 cell lines [3]; cell line A-172, Glioblastoma, TP53 Wild-type",11.5 µM
same,IC50,"102 cell lines [3]; cell line A-204, Embryonal rhabdomyosarcoma, TP53 Wild-type",3.06 µM
same,IC50,"102 cell lines [3]; cell line A-427, Lung adenocarcinoma, TP53 Wild-type",5.36 µM
same,IC50,"102 cell lines [3]; cell line A-498, Renal cell carcinoma, TP53 Wild-type",5.59 µM
same,IC50,"102 cell lines [3]; cell line A-549, Lung adenocarcinoma, TP53 Wild-type",6.56 µM
same,IC50,"102 cell lines [3]; cell line A-704, Renal cell carcinoma, TP53 Mutant",> 31.6 µM
same,IC50,"102 cell lines [3]; cell line AN3 CA, Endometrial adenocarcinoma, TP53 Mutant",> 31.6 µM
same,IC50,"102 cell lines [3]; cell line AU-565, Breast adenocarcinoma, TP53 Mutant",> 31.6 µM
same,IC50,"102 cell lines [3]; cell line BT-20, Invasive ductal carcinoma, TP53 Mutant",> 31.6 µM
same,IC50,"102 cell lines [3]; cell line BT-549, Invasive ductal carcinoma, TP53 Mutant",> 31.6 µM
same,IC50,"102 cell lines [3]; cell line BxPC-3, Pancreatic ductal adenocarcinoma, TP53 Mutant",> 31.6 µM
same,IC50,"102 cell lines [3]; cell line C-33 A, Cervical squamous cell carcinoma, TP53 Mutant",> 31.6 µM
same,IC50,"102 cell lines [3]; cell line CAL 27, Tongue squamous cell carcinoma, TP53 Mutant",> 31.6 µM
same,IC50,"102 cell lines [3]; cell line CCF-STTG1, Astrocytoma, TP53 Wild-type",7.17 µM
same,IC50,"102 cell lines [3]; cell line CCRF-CEM, Childhood T acute lymphoblastic leukemia, TP53 Mutant",> 31.6 µM
same,IC50,"102 cell lines [3]; cell line COLO 205, Colon adenocarcinoma, TP53 Mutant",> 31.6 µM
same,IC50,"102 cell lines [3]; cell line COLO 829, Cutaneous melanoma, TP53 Wild-type",15.6 µM
same,IC50,"102 cell lines [3]; cell line DB, Diffuse large B-cell lymphoma, TP53 Mutant",28.6 µM
same,IC50,"102 cell lines [3]; cell line DLD-1, Colon adenocarcinoma, TP53 Mutant",> 31.6 µM
same,IC50,"102 cell lines [3]; cell line DU 145, Prostate carcinoma, TP53 Mutant",> 31.6 µM
same,IC50,"102 cell lines [3]; cell line DU4475, Breast carcinoma, TP53 Wild-type",4.62 µM
same,IC50,"102 cell lines [3]; cell line DoTc2 4510, Cervical carcinoma, TP53 Wild-type",> 31.6 µM
same,IC50,"102 cell lines [3]; cell line ES-2, Ovarian clear cell adenocarcinoma, TP53 Mutant",> 31.6 µM
same,IC50,"102 cell lines [3]; cell line TCCSUP (Bladder carcinoma), TP53 Mutant",> 31.6 µM
same,IC50,"102 cell lines [3]; cell line THP-1 (Childhood acute monocytic leukemia), TP53 Mutant",> 31.6 µM
same,IC50,"102 cell lines [3]; cell line U-87 MG (Glioblastoma), TP53 Wild-type",4.37 µM
same,IC50,"102 cell lines [3]; cell line U-118 MG (Astrocytoma), TP53 Mutant",> 31.6 µM
same,IC50,"102 cell lines [3]; cell line VA-ES-BJ (Epithelioid sarcoma), TP53 Wild-type",1.73 µM
